According to publication PMC12603070, “A high-throughput screening approach to discover potential colorectal cancer chemotherapeutics: repurposing drugs to identify novel disruptors of 14-3-3 proteins” (Cell Death & Disease, 2025):
Read-outs that look alike come from different tables or passages of the source.

What was measured:
[1] = molecular target: T1, 14-3-3ζ:BAD-112-136F interactions (Homo sapiens, UniProt P63104); experiment: BRET sensor screen for disruption of 14-3-3ζ-Rluc8:BAD-112-136F-mCitrine in living NIH-3T3 cells; assay type: cell-based, murine; parameters: inhibition: dose or concentration left out as unconfirmed; BRET reduction on NIH-3T3: unit not given here; settings: for inhibition / inhibition at 20 µM: read-out: BRET reduction on NIH-3T3
T1 construct: expressed in transfected cells; host or cells: NIH-3T3 fibroblasts, bi-directional pBI-CMV1 plasmid
T1 sequence (P63104 1-245): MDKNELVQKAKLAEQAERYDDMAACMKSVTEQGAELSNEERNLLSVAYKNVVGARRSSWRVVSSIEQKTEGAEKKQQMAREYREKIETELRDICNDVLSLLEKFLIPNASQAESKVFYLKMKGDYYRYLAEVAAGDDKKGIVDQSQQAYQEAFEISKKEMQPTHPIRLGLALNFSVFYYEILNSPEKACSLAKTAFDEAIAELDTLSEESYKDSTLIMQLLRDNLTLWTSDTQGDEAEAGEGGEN
How it was run: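 NIH-3T3 cells were transfected with the BRET sensor two days beforehand, then replated on poly-L-ornithine-coated plates and grown 24 h at 37 °C. Medium was then replaced with Krebs buffer (pH 7.4). Z′-score was calculated to judge HTS robustness.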

NIH-3T3 cells = experiment: Hoechst/propidium iodide cell death assay in NIH-3T3; assay type: cell-based; settings: for cytotoxicity at 20 µM: Mus musculus, NIH3T3, 24 h, read-out: Percentage of cell death % 24h NIH3t3
From the text: (§1) A high-content imaging system (PerkinElmer; Operetta CLS), was used to quantify cell death and apoptosis by calculating the number of propidium iodide-positive cells relative to Hoechst-positive cells, and the number of Annexin V-positive cells relative to Hoechst-positive cells, respectively.

HT-29 cells = experiment: Hoechst/propidium iodide cell death assay in HT-29; assay type: cell-based, human; settings: for %Cell death HT-29: time not given; for cytotoxicity at 20 µM: Homo sapiens
From the text: as §1

Caco-2 cells = assay type: cell-based; settings: for Percentage of cell death % 24h CACO-2: 20 µM; for Percentage of cell death % 48h, Caco-2: 20 μM
From the text: as §1

[2] = NIH3T3, 3 h, NIH-3T3 cells, hits from the primary screen
[3] = NIH3T3, 3 h, NIH-3T3 expressing BRET sensor, 20 µM, 3 h
[4] = HT-29, 24 h, 20 µM, 24 h, read-out: Percentage of cell death % 24h HT-29
[5] = HT-29, 48 h, HT-29, 48h, 20 μM, read-out: Percentage of cell death % 48h, HT-29
[6] = NIH-3T3 cells, hits from the primary screen
[7] = HT-29, 24 h, read-out: Percentage of cell death % 24h HT-29
[8] = HT-29, 48 h, read-out: Percentage of cell death % 48h, HT-29

Row | Compound | inhibition [1, 2] [%] | inhibition at 20 µM [1, 3] [%] | cytotoxicity at 20 µM (NIH-3T3 cells; 20 µM, 24 h) [%] | Percentage of cell death % 48h, NIH3T3 (NIH-3T3 cells) [%] | %Cell death HT-29 (HT-29 cells; HT-29) [%] | cytotoxicity at 20 µM (HT-29 cells; [4]) [%] | cytotoxicity at 20 µM (HT-29 cells; [5]) [%] | %Cell death Caco-2 (Caco-2 cells) [%] | BRET reduction on NIH-3T3 [1, 6] | BRET reduction on NIH-3T3 ([1]; NIH-3T3 expressing BRET sensor, 20 µM, 3 h) | Percentage of cell death % 24h NIH3t3 (NIH-3T3 cells; 20 µM, 24 h) [%] | Percentage of cell death % 24h HT-29 (HT-29 cells; 20 µM, 24 h) [%] | Percentage of cell death % 48h, HT-29 (HT-29 cells; HT-29, 48h, 20 μM) [%] | Percentage of cell death % 24h CACO-2 (Caco-2 cells) [%] | Percentage of cell death % 48h, Caco-2 (Caco-2 cells) [%] | inhibition at 20 µM ([1]; NIH3T3, NIH-3T3 expressing BRET sensor, 20 µM, 3 h) [%] | cytotoxicity at 20 µM (NIH-3T3 cells) [%] | cytotoxicity at 20 µM (HT-29 cells; [7]) [%] | cytotoxicity at 20 µM (HT-29 cells; [8]) [%] | inhibition at 20 µM ([1]; NIH3T3, 3 h) [%]
1 | CCCCCCCCCCCC1=C(O)C(=O)C=C(O)C1=O [Embelin] | 37 | 37 | 69.5 | 37.4899 | 51.8 | 19 | 51.8 | 1.7 |  |  |  |  |  |  |  |  |  |  |  | 
2 | Cl.Cl.Fc1ccc(C(c2ccc(F)cc2)N2CCN(C/C=C/c3ccccc3)CC2)cc1 [Flunarizine 2HCl] |  |  |  | 0.5715 |  |  |  |  | 36.4286 | 36.4286 | 0.377 | 0.7908 | 1.34 | 3.891 | 3.726 |  |  |  |  | 
3 | C=CCc1ccc(O)c(-c2ccc(O)c(CC=C)c2)c1 [Honokiol] | 34.2 | 34.2 | 27.4 | 11.7537 |  | 8.61 | 11.1 |  |  |  |  |  |  | 22.4688 | 15.5538 |  |  |  |  | 
4 | Clc1ccc(C(Cn2ccnc2)OCc2c(Cl)cccc2Cl)c(Cl)c1 (stereo not shown) [Isoconazole nitrate] | 45.1 | 45.1 | 8.57 | 4.218 |  | 1.88 | 3.88 |  |  |  |  |  |  | 5.943 | 5.407 |  |  |  |  | 
5 | Cc1ccc(C(=O)N(CCCN)[C@@H](c2nc3cc(Cl)ccc3c(=O)n2Cc2ccccc2)C(C)C)cc1 [Ispinesib (SB-715992), Ispinesib] |  |  |  | 78.7121 |  |  |  |  | 44.0919 |  |  |  |  | 86.1725 | 89.1796 | 44.1 | 87.5 | 50.8 | 86.7 | 
6 | CC(C)(C)c1cc(C(C)(C)C)c(NC(=O)c2c[nH]c3ccccc3c2=O)cc1O [Ivacaftor (VX-770), Ivacaftor] | 39 | 39 | 7.87 | 12.0089 |  | 9.35 | 60.7 |  |  |  |  |  |  | 14.0443 | 14.6425 |  |  |  |  | 
7 | Cc1cc(Nc2cc(CN3CCOCC3)c3nc(C)c(Cc4ccc(Cl)cc4F)n3n2)n[nH]1 [LY2784544] | 36.5 | 36.5 | 62.8 | 50.4683 |  | 6.62 | 55.6 |  |  |  |  |  |  | 12.6848 | 17.5299 |  |  |  |  | 
8 | CCOC(=O)C1=C(C)NC(C)=C(C(=O)OCC)C1c1ccccc1/C=C/C(=O)OC(C)(C)C [Lacidipine] | 27.1 | 27.1 | 0.275 | 0.2227 |  | 1.94 | 2.6 |  |  |  |  |  |  | 4.66 | 4.938 |  |  |  |  | 
9 | CC(C)OC(=O)CCC/C=C\C[C@@H]1[C@@H](CC[C@@H](O)CCc2ccccc2)[C@H](O)C[C@@H]1O [Latanoprost] | 29.5 | 29.5 | 1.31 | 0.6511 |  | 0.702 | 1.45 |  |  |  |  |  |  | 2.638 | 2.117 |  |  |  |  | 
10 | C[C@H](CCC(=O)O)[C@H]1CC[C@H]2[C@@H]3CC[C@@H]4C[C@H](O)CC[C@]4(C)[C@H]3CC[C@]12C [Lithocholic Acid] | 40.1 | 40.1 | 2.68 | 0.3149 |  | 0.614 | 2.06 |  |  |  |  |  |  | 2.024 | 1.756 |  |  |  |  | 
11 | CCOC(=O)N1CCC(=C2c3ccc(Cl)cc3CCc3cccnc32)CC1 [Loratadine] | 25.5 | 25.5 | 9.83 | 16.5359 |  | 0.925 | 3.3 |  |  |  |  |  |  | 3.76 | 3.356 |  |  |  |  | 
12 | C=CCc1ccc(O)c(-c2cc(CC=C)ccc2O)c1 [Magnolol] |  |  |  | 6.55 |  |  |  |  | 33.2336 |  |  |  |  | 16.7853 | 10.8986 |  | 15.7 | 15.8 | 20.3 | 33.2
13 | O=c1[nH]c2ccccc2n1C1CCN(CCCC(c2ccc(F)cc2)c2ccc(F)cc2)CC1 [Pimozide] |  |  | 65.9 | 78.5926 | 64.6 | 11 | 64.6 | 59.9 | 38.4171 |  |  |  |  |  |  |  |  |  |  | 38.4
14 | Cc1ccc(C(=O)Nc2ccc(CN3CCN(C)CC3)c(C(F)(F)F)c2)cc1C#Cc1cnc2cccnn12 [Ponatinib (AP24534), Ponatinib] |  |  |  | 54.2208 |  |  |  |  | 44.6783 |  |  |  |  | 28.4678 | 42.5244 |  | 73.5 | 56.7 | 83.2 | 44.7

Second part, led by results:

Row | inhibition [1, 2] [%] | inhibition at 20 µM [1, 3] [%] | Compound | cytotoxicity at 20 µM (NIH-3T3 cells; 20 µM, 24 h) [%] | Percentage of cell death % 48h, NIH3T3 (NIH-3T3 cells) [%] | %Cell death HT-29 (HT-29 cells; HT-29) [%] | cytotoxicity at 20 µM (HT-29 cells; [4]) [%] | cytotoxicity at 20 µM (HT-29 cells; [5]) [%] | %Cell death Caco-2 (Caco-2 cells) [%] | BRET reduction on NIH-3T3 [1, 6] | BRET reduction on NIH-3T3 ([1]; NIH-3T3 expressing BRET sensor, 20 µM, 3 h) | Percentage of cell death % 24h NIH3t3 (NIH-3T3 cells; 20 µM, 24 h) [%] | Percentage of cell death % 24h HT-29 (HT-29 cells; 20 µM, 24 h) [%] | Percentage of cell death % 48h, HT-29 (HT-29 cells; HT-29, 48h, 20 μM) [%] | Percentage of cell death % 24h CACO-2 (Caco-2 cells) [%] | Percentage of cell death % 48h, Caco-2 (Caco-2 cells) [%] | inhibition at 20 µM ([1]; NIH3T3, NIH-3T3 expressing BRET sensor, 20 µM, 3 h) [%] | cytotoxicity at 20 µM (NIH-3T3 cells) [%] | cytotoxicity at 20 µM (HT-29 cells; [7]) [%] | cytotoxicity at 20 µM (HT-29 cells; [8]) [%] | inhibition at 20 µM ([1]; NIH3T3, 3 h) [%]
15 | 33.9 | 33.9 | C=C[C@@H]1C[C@]1(NC(=O)[C@@H]1C[C@@H]2CN1C(=O)[C@H](C(C)(C)C)NC(=O)O[C@@H]1C[C@H]1CCCCCc1nc3ccc(OC)cc3nc1O2)C(=O)NS(=O)(=O)C1CC1 [MK-5172] | 0.421 | 0.3254 |  | 0.694 | 2.55 |  |  |  |  |  |  | 2.115 | 2.005 |  |  |  |  | 
16 | 44 | 44 | CO/N=C1\C[C@]2(C[C@@H]3C[C@@H](C/C=C(\C)C[C@@H](C)/C=C/C=C4\CO[C@@H]5[C@H](O)C(C)=C[C@@H](C(=O)O3)[C@]45O)O2)O[C@H](/C(C)=C/C(C)C)[C@H]1C [Moxidectin] | 80.7 | 68.7026 | 78.4 | 8.61 | 78.4 | 8.4 |  |  |  |  |  |  |  |  |  |  |  | 
17 | 34.7 | 34.7 | OC(CNCC(O)C1CCc2cc(F)ccc2O1)C1CCc2cc(F)ccc2O1 (stereo not shown) [Nebivolol] | 64.6 | 64.5697 | 67.3 | 9.8 | 67.3 | 45.0 |  |  |  |  |  |  |  |  |  |  |  | 
18 | 28.9 | 28.9 | CN(C(=O)CN(CCO)CC(=O)N(C)C(C)(C)Cc1ccccc1)C(C)(C)Cc1ccccc1 [Oxethazaine] | 28.2 | 9.9556 | 53.1 | 3.21 | 53.1 | 13.9 |  |  |  |  |  |  |  |  |  |  |  | 
19 | 29.4 | 29.4 | CC(C)Oc1ccc(-c2nc(-c3cccc4c3CC[C@@H]4NCCO)no2)cc1C#N [Ozanimod (RPC1063), Ozanimod] | 89.9 | 87.9452 |  | 1.29 | 3.92 |  |  |  |  |  |  | 10.8525 | 17.0415 |  |  |  |  | 
20 | 41.6 | 41.6 | COc1cc(C(=O)O)ccc1NC(=O)[C@@H]1N[C@@H](CC(C)(C)C)[C@](C#N)(c2ccc(Cl)cc2F)[C@H]1c1cccc(Cl)c1F [RG7388] | 35.1 | 20.6788 |  | 9.54 | 50 |  |  |  |  |  |  | 4.882 | 4.655 |  |  |  |  | 
